Test results from the OPERA property sets (Mansouri et al. 2018).

details: not given

Point of comparison: `C=C1CC(=O)O1`, log10 vapour pressure (mmHg) 1.03. Against it:
- CCCOP(=O)(OCCC)Oc1ccc(SC)cc1 — lower, -6.05
- OC1CCCCC1c1ccccc1 (configuration not stated) — lower, -1.44
- CN(C)C — higher, 3.21
- O=C=O — higher, 4.68
- C=CC(=C)Cl — higher, 2.33
- O=C=S — higher, 3.97
- CC(C)Oc1cc(-n2nc(C(C)(C)C)oc2=O)c(Cl)cc1Cl — lower, -6.95
- CC(C)CCCCCOC(=O)C(C)Oc1ccc(Cl)cc1Cl (configuration not stated) — lower, -5.47
- Brc1cc2c(cc1Br)Oc1ccccc1O2 — lower, -5.92
- C=C(Cl)C(Cl)CCl (configuration not stated) — lower, 0.274
- Clc1cc2oc3c(Cl)c(Cl)ccc3c2cc1Cl — lower, -7.68
- CC(C)(C)CC(C)(C)C — higher, 1.3
- CCc1cccnc1 — lower, 0.403
- Cc1ccccc1Br — lower, 0.0186
- CC=C(C)C(C)C — higher, 1.83
- C=CCSCC=C — within 0.2 log units, 0.965
- CCCc1ccccc1C — lower, -0.0027
- CC=C(C)CCC — higher, 1.7

Point of comparison: `C=CC(=C)Cl`, boiling point 59.4 °C. Against it:
- OC1CCCCC1c1ccccc1 (configuration not stated) — higher, 228 °C
- CN(C)C — lower, 2.87 °C
- O=C=O — lower, -78.5 °C
- CC(C)CBr — higher, 91.1 °C
- CC(C)c1ccc(C=O)cc1 — higher, 236 °C
- CC(CCl)CBr (configuration not stated) — higher, 155 °C
- O=C=S — lower, -50 °C
- C[Si](Cl)(Cl)C(Cl)Cl — higher, 149 °C
- C=C(Cl)C(Cl)CCl (configuration not stated) — higher, 155 °C
- O=[N+]([O-])c1cc(F)cc(F)c1 — higher, 176 °C
- C=C1CC(=O)O1 — higher, 126 °C
- COc1ccnc2ccccc12 — higher, 245 °C
- CC(C)(C)CC(C)(C)C — higher, 122 °C
- CC(=O)N(C)c1ccccc1C — higher, 260 °C
- CCC(=O)N(C)C — higher, 174 °C
- CCc1cccnc1 — higher, 165 °C
- CCC#CCC — higher, 81 °C
- Cc1ccccc1Br — higher, 182 °C
- CCCCCCCCCCCCCCCCCCN — higher, 347 °C
- C=CCSCC=C — higher, 139 °C
- CCCc1ccccc1C — higher, 185 °C
- c1ccc(-n2cccc2)cc1 — higher, 234 °C
- C#CCCCC#C — higher, 112 °C
- O=C(c1ccc(Cl)cc1)c1ccc(Cl)cc1 — higher, 353 °C
- CCS(=O)(=O)Cl — higher, 174 °C

Point of comparison: `CCc1cccnc1`, log10 Henry constant (atm·m³/mol) -4.98. Against it:
- CN(C)C — higher, -3.98

For `CN(C)C`, the ready biodegradability was “readily biodegradable”.
For `CC(C)c1ccc(C=O)cc1`, the ready biodegradability was “readily biodegradable”.
In the case of `CC(C)Oc1cc(-n2nc(C(C)(C)C)oc2=O)c(Cl)cc1Cl`, the ready biodegradability is reported as “not readily biodegradable”.
With `C=C1CC(=O)O1` the ready biodegradability was “readily biodegradable”.
In the case of `O=C(Nc1cccc(N(CCO)CCO)c1)c1ccccc1`, the ready biodegradability is reported as “not readily biodegradable”.

Point of comparison: `O=C(O)c1cc(F)c(F)cc1F`, melting point 100 °C. Against it:
- ClCCCCCCCCCCCl — lower, 15.6 °C
- O=C=O — lower, -56.5 °C
- CC(c1ccccc1)(c1ccccc1)c1ccccc1 — lower, 95 °C
- CC(C)CBr — lower, -119 °C
- NS(=O)(=O)c1cc2c(cc1Cl)NC(CSCC(F)(F)F)NS2(=O)=O (configuration not stated) — higher, 206 °C
- C=Cc1ccc(N)cc1 — lower, 23.5 °C
- O=C1C=CC(=O)C1 — lower, 37 °C
- CC(=O)[C@@]1(C)CC[C@H]2[C@@H]3CCC4=CC(=O)CCC4=C3CC[C@@]21C — higher, 106 °C
- OC[C@H]1O[C@H]1c1ccccc1 — lower, 26.5 °C
- C=CC(=C)Cl — lower, -130 °C
- Cc1[nH]c(=O)n(C(C)C)c(=O)c1Br — higher, 158 °C
- Cc1c(Cl)cc(-c2ccc(O)nn2)cc1Cl — higher, 252 °C
- C#CCN1C(=O)COc2cc(F)c(N3C(=O)C4=C(CCCC4)C3=O)cc21 — higher, 202 °C
- O=C=S — lower, -139 °C
- COc1ccc(-c2coc3cc(O)ccc3c2=O)cc1 — higher, 256 °C
- CC(C)Oc1cc(-n2nc(C(C)(C)C)oc2=O)c(Cl)cc1Cl — lower, 90 °C
- O=C(CCCN1CCC(n2c(=S)[nH]c3ccccc32)CC1)c1ccc(F)cc1 — higher, 202 °C
- CC(C)CCCCCOC(=O)C(C)Oc1ccc(Cl)cc1Cl (configuration not stated) — lower, -37 °C
- C=C1C[C@@]23CC[C@H]4[C@@](C)(CCC[C@@]4(C)C(=O)O[C@@H]4O[C@H](CO)[C@@H](O)[C@H](O)[C@H]4O)[C@@H]2CC[C@]1(O[C@@H]1O[C@H](CO)[C@@H](O)[C@H](O)[C@H]1O[C@@H]1O[C@H](CO)[C@@H](O)[C@H](O)[C@H]1O)C3 — higher, 198 °C
- CN(C)C1CSSC1 — higher, 177 °C
- Brc1cc2c(cc1Br)Oc1ccccc1O2 — higher, 158 °C
- CC1=C(/C=C/C(C)=C/C=C/C(C)=C/CO)C(C)(C)CCC1 — lower, 63.5 °C
- CC(=O)[O-].[NH4+] — higher, 114 °C
- CN1CC[C@]23c4c5ccc(O)c4O[C@H]2C(=O)CC[C@@]3(O)[C@H]1C5 — higher, 248 °C
- O=[N+]([O-])c1cc(F)cc(F)c1 — lower, 17 °C
- C=C1CC(=O)O1 — lower, -6.5 °C
- O=C(O)c1cc(O)c(O)c(=O)c(O)c1 — higher, 317 °C
- COc1ccnc2ccccc12 — lower, 41 °C
- Clc1cc2oc3c(Cl)c(Cl)ccc3c2cc1Cl — higher, 195 °C
- CC(C)(C)CC(C)(C)C — lower, -66.5 °C
- CC(=O)N(C)c1ccccc1C — lower, 55.5 °C
- CCC(=O)N(C)C — lower, -45 °C
- CCc1cccnc1 — lower, -76.9 °C
- C(=Nc1ccccc1)Nc1ccccc1 — higher, 142 °C
- CCC#CCC — lower, -103 °C
- Clc1cc(Cl)c2cc(Cl)cc(Cl)c2c1 — higher, 180 °C
- Cc1ccccc1Br — lower, -27.8 °C
- CCCCCCCCCCCCCCCCCCN — lower, 52.9 °C
- C=CCSCC=C — lower, -85 °C
- CCCc1ccccc1C — lower, -60.3 °C
- c1ccc(-n2cccc2)cc1 — lower, 62 °C
- C#CCCCC#C — lower, -85 °C
- O=C(c1ccc(Cl)cc1)c1ccc(Cl)cc1 — higher, 148 °C
- O[C@H](CCl)[C@H](O)CCl — higher, 126 °C

Point of comparison: `CC(C)Oc1cc(-n2nc(C(C)(C)C)oc2=O)c(Cl)cc1Cl`, log10 Koc (L/kg) 3.51. Against it:
- Cc1[nH]c(=O)n(C(C)C)c(=O)c1Br — lower, 2.11

`Clc1cc(Cl)c2cc(Cl)cc(Cl)c2c1` gave a log10 Koa of 7.9.

Compound `CCCc1ccccc1C` has a log10 biodegradation half-life (days) of 0.477.

same assay, conditions: fish

Point of comparison: `Clc1cc(Cl)c(Cl)c(-c2c(Cl)c(Cl)cc(Cl)c2Cl)c1Cl`, log10 BCF 5.82. Against it:
- C1CNCCN1 — lower, 0.59
- CC(C)Oc1cc(-n2nc(C(C)(C)C)oc2=O)c(Cl)cc1Cl — lower, 3.08
- CN(C)C1CSSC1 — lower, 1.72
- Clc1cc2oc3c(Cl)c(Cl)ccc3c2cc1Cl — lower, 2.72

`CC(C)Oc1cc(-n2nc(C(C)(C)C)oc2=O)c(Cl)cc1Cl` showed a log10 biotransformation half-life (days) of 0.77.
